In publication PMC5829263, “Homoarginine and inhibition of human arginase activity: kinetic characterization and biological relevance” (Scientific Reports, 2018):
“Also recorded” adds a separate entry of the source. Where two headings read alike, the source gives them in different places.

Key:
[1] = biological target: T1, recombinant human arginase 1 (Homo sapiens, UniProt P05089); experiment: Arginase 1 inhibition, UPLC-MS measurement of ARG to ORN conversion in HEK293T cell lysate; settings: for remaining activity at 1 µM / remaining activity at 10 µM / remaining activity at 100 µM / remaining activity at 1000 µM / remaining activity at 10000 µM / remaining activity at 0.1 µM: read-out: % of control activity at the corresponding [Inhibitor] ± SE, arginase 1, mean of two experiments; for remaining activity at 1 µM: inhibitor 1 µM; for remaining activity at 10 µM: inhibitor 10 µM; for remaining activity at 100 µM: inhibitor 100 µM; for remaining activity at 1000 µM: inhibitor 1,000 µM; for remaining activity at 10000 µM: inhibitor 10,000 µM; for remaining activity at 0.1 µM: inhibitor 0.1 µM;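 for all read-outs here: arginase 1–expressing HEK293T lysate at 0.05 mg/mL in pH 7.4 phosphate buffer, inhibitor preincubated 5 min with enzyme, then reaction started by adding ARG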
T1 sequence (P05089 1-322): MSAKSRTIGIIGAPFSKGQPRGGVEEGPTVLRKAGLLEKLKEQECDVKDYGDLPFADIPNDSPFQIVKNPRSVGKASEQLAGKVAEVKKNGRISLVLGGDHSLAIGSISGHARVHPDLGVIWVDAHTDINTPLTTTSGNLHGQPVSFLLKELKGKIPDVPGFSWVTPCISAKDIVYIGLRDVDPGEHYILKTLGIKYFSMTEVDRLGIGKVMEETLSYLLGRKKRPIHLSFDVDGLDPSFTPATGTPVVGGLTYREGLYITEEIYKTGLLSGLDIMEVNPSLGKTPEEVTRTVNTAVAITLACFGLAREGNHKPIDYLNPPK
Experimental: (§1) Following a 5-min pre-equilibration period reactions were initiated by the addition of the cell lysate solution in 0.05 M phosphate buffer to a pre-equilibrated aqueous solution of the substrate (ARG).
(§2) The samples were vortex mixed (20 sec) and cooled in an ice/water bath for 10 min prior to centrifugation (5 min, 18,000 × g, room temperature) to precipitate the proteins. An aliquot of the supernatant layer was diluted with a 7:3 mobile phase A/mobile phase B solution into glass UPLC vial inserts.
Incubation mixtures comprised of HEK293T cell lysate expressing arginase 1 (0.05 mg/mL) or arginase 2 (0.1 mg/mL), phosphate buffer (0.05 M, pH 7.4), inhibitor (0, 0.1, 1, 10, 100, 1000 or 10000 μM) and ARG (0.1, 2 or 3 mM). Following a 5-min pre-incubation of the potential inhibitor with arginase 1 or arginase 2, reactions were initiated by the addition of a pre-equilibrated solution of the substrate ARG.
Ki values were derived from fitting the competitive inhibition equation to experimental data. Ki data are the mean of three singlicate experiments.

[2] = biological target: T2, recombinant human arginase 2 (Homo sapiens, UniProt P78540); experiment: Arginase 2 inhibition, UPLC-MS measurement of ARG to ORN conversion in HEK293T cell lysate; settings: for remaining activity at 1 µM / remaining activity at 10 µM / remaining activity at 100 µM / remaining activity at 1000 µM / remaining activity at 10000 µM / remaining activity at 0.1 µM: read-out: % of control activity at the corresponding [Inhibitor] ± SE, arginase 2, mean of two experiments; for remaining activity at 1 µM: inhibitor 1 µM; for remaining activity at 10 µM: inhibitor 10 µM; for remaining activity at 100 µM: inhibitor 100 µM; for remaining activity at 1000 µM: inhibitor 1,000 µM; for remaining activity at 10000 µM: inhibitor 10,000 µM; for remaining activity at 0.1 µM: inhibitor 0.1 µM;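 for all read-outs here: HEK293T lysate carrying arginase 2 at 0.1 mg/mL in 0.05 M phosphate buffer pH 7.4, inhibitor preincubated with enzyme 5 min before ARG addition started the reaction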
T2 sequence (P78540 23-354): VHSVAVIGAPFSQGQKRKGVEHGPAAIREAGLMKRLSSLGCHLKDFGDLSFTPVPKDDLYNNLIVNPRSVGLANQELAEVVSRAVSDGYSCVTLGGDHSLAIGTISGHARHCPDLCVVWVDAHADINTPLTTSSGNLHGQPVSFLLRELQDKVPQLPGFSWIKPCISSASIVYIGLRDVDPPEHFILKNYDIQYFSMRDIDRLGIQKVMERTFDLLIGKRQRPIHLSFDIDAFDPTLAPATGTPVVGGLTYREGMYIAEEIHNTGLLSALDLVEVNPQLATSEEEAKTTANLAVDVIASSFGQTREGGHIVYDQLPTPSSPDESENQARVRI

[3] = biological target: T1, recombinant human arginase 1; experiment: Arginase 1 activity assay, kinetics of ARG conversion to ORN; type: biochemical; settings: absence vs 0.5 mM manganese chloride
Experimental: Incubation mixtures contained HEK293T cell lysate expressing recombinant human arginase 1 (0.05 mg/mL) or arginase 2 (0.1 mg/mL), phosphate buffer (0.05 M, pH 7.4) and ARG (0 to 15 mM).
as §1, §2
Kinetic data are the mean of three singlicate experiments.

SMILES	remaining activity at 1 µM ([1]; ARG 100 µM)	remaining activity at 10 µM ([1]; ARG 100 µM)	remaining activity at 100 µM ([1]; ARG 100 µM)	remaining activity at 1000 µM ([1]; ARG 100 µM)	remaining activity at 1 µM ([1]; ARG 3 mM)	remaining activity at 10 µM ([1]; ARG 3 mM)	remaining activity at 100 µM ([1]; ARG 3 mM)	remaining activity at 1000 µM ([1]; ARG 3 mM)	remaining activity at 1 µM ([2]; ARG 100 µM)	remaining activity at 10 µM ([2]; ARG 100 µM)	remaining activity at 100 µM ([2]; ARG 100 µM)	remaining activity at 1000 µM ([2]; ARG 100 µM)	remaining activity at 1 µM ([2]; ARG 2 mM)	remaining activity at 10 µM ([2]; ARG 2 mM)	remaining activity at 100 µM ([2]; ARG 2 mM)	remaining activity at 1000 µM ([2]; ARG 2 mM)	other results
NCCCCN=C(N)N [AG, agmatine]	94 ± 7%	82 ± 5%	110 ± 24%	84 ± 8%	84 ± 13%	100 ± 3%	100 ± 8%	98 ± 13%	103 ± 4%	98 ± 7%	92 ± 6%	78 ± 5%	104 ± 4%	96 ± 3%	103 ± 3%	96 ± 3%	arginase 1 inhibitor assessment in words ([1]; at the concentrations tested, both ARG concentrations): poor arginase 1 inhibitors; also recorded: no significant inhibition; remaining activity at 10000 µM ([1]; ARG 100 µM): 72 ± 3%; remaining activity at 10000 µM ([1]; ARG 3 mM): 78 ± 7%; arginase 2 inhibitor assessment in words ([2]; at the concentrations tested): poor inhibitors; also recorded: no significant inhibition; remaining activity at 10000 µM ([2]; ARG 100 µM): 58 ± 1%; remaining activity at 10000 µM ([2]; ARG 2 mM): 87 ± 8%
[H]/N=C(/NC)NCCC[C@H](N)C(=O)O [L-NMMA, NG-Monomethyl-L-arginine]	91 ± 6%	104 ± 11%	95 ± 6%	116 ± 1%	107 ± 11%	95 ± 9%	94 ± 8%	97 ± 11%	103 ± 2%	106 ± 1%	106 ± 9%	111 ± 4%	105 ± 4%	109 ± 8%	104 ± 3%	118 ± 4%	remaining activity at 0.1 µM ([1]; ARG 100 µM): 95 ± 2%; remaining activity at 0.1 µM ([1]; ARG 3 mM): 106 ± 15%; remaining activity at 0.1 µM ([2]; ARG 100 µM): 101 ± 1%; remaining activity at 0.1 µM ([2]; ARG 2 mM): 96 ± 7%
[Cl][Mn][Cl] [manganese chloride]	–	–	–	–	–	–	–	–	–	–	–	–	–	–	–	–	rate of ORN formation higher in absence of manganese supplementation [3]: 20%
